Values of other authors in patent US7659260B2, “Tamponade compositions and methods for retinal repair” (priority 2005, dated 2010).

What was measured:
[1] = reportedly; unless ingested in very large amounts
[2] = at 25° C.

relative density [2]: 1.1044
SMILES: [2H]O[2H] [Heavy water, deuterium-containing heavy water (D2O)]
toxicity [1]: non-toxic, unless ingested in very large amounts
